Test results taken from patent US20040156874A1, “Urea- a topical anti-inflammatory” (Bradley Pharmaceuticals, Inc., priority 2003, published 2004).

Legend:
[1] = tested on: common organisms; settings: high concentrations of urea, such as 40%; cited from earlier work
[2] = tested on: dermal inflammation; assay: topical urea applied to inflamed skin; format: in vivo
[3] = tested on: horny layer of the skin; settings: normal horny layer or ichthyotic/psoriatic scales soaked in 30% urea solution; cited from earlier work

Compound: NC(N)=O [urea]
- antibacterial effect [1]: mild, antibacterial effect
- dermal inflammation ([2]; formulated in a pharmaceutically acceptable base): improvement
- effectiveness against inflammation due to microbial infection ([2]; inflammation due to microbial infection): particularly effective
- water uptake of horny layer [3]: take up much more water
